Test results from US6939948B1, “GD2 peptide mimics” (Health Research, Inc., priority 2002, dated 2005).
No end group written: not given here.

Test system: anti-GD2 ganglioside mAb 3F8
Assay: Inhibition assay: inhibition of binding of anti-GD2 mAb 3F8 to GD2 ganglioside bearing melanoma cells
Settings: GD2 (+) human melanoma cells
Method: Peptide mimics of GD2 ganglioside can be isolated by panning phage display peptide libraries with anti-GD2 ganglioside such as mAbs 3F8, 5F11, and KM666 that recognize different epitopes on GD2 ganglioside. Anti-GD2 ganglioside mAbs can be used to isolate phage that display antibody reactive peptides. After phage panning, the binding ability of isolated phage colonies to anti-GD2 ganglioside mAbs is tested with immunoscreening and further confirmed by ELISA. Anti-GD2 antibody reactive phage clone and the same phage without displaying peptides, can be utilized as a positive and a negative controls respectively in the immunoscreening and ELISA. In the positive phage clones, the DNA inserts that encode the antibody reactive peptides can be sequenced. Peptides can be synthesized based on the sequences of the DNA inserts. The synthesized peptides are tested in ELISA to determine their binding reactivity with corresponding anti-GD2 ganglioside mAbs. […] The synthetic peptides that inhibit or block the binding of anti-GD2 ganglioside mAbs to GD2 ganglioside can be tested as active immunotherapy candidates.
The synthesized peptides were tested with reverse ELISA and inhibition assay with mAb 3F8. […] Peptide J51 contains HLA-B7 and HLA-DRB1 binding motifs.

Row | Substance | inhibition of the binding of mAb 3F8 to GD2 ganglioside bearing melanoma cells
1 | DCFRGDPYQPKWRLC (J51 peptide mimic for GD2) [Peptide J51, GD2 peptide mimic from PVIII X15 library] | inhibited the binding
2 | cJ51: cyclic peptide J51, which mimics the structure of GD2 ganglioside (DCFRGDPYQPKWRLC; also: cyclic, cyclising bond not given here) | inhibit the binding
